{"source": "paper PMC2630805", "about": "“Anticancer Alkaloid Lamellarins Inhibit Protein Kinases” (Marine Drugs, 2008)", "key": {"[1]": {"molecular_target": "FLT-1 kinase (h) (VEGFR1) (Homo sapiens, UniProt P17948)", "test": "CEREP Kinase Selectivity Panel", "type": "biochemical", "settings": "10 μM lamellarin N"}, "[2]": {"molecular_target": "Abl kinase (h) (Homo sapiens, UniProt P00519)", "sequence (P00519 whole entry)": "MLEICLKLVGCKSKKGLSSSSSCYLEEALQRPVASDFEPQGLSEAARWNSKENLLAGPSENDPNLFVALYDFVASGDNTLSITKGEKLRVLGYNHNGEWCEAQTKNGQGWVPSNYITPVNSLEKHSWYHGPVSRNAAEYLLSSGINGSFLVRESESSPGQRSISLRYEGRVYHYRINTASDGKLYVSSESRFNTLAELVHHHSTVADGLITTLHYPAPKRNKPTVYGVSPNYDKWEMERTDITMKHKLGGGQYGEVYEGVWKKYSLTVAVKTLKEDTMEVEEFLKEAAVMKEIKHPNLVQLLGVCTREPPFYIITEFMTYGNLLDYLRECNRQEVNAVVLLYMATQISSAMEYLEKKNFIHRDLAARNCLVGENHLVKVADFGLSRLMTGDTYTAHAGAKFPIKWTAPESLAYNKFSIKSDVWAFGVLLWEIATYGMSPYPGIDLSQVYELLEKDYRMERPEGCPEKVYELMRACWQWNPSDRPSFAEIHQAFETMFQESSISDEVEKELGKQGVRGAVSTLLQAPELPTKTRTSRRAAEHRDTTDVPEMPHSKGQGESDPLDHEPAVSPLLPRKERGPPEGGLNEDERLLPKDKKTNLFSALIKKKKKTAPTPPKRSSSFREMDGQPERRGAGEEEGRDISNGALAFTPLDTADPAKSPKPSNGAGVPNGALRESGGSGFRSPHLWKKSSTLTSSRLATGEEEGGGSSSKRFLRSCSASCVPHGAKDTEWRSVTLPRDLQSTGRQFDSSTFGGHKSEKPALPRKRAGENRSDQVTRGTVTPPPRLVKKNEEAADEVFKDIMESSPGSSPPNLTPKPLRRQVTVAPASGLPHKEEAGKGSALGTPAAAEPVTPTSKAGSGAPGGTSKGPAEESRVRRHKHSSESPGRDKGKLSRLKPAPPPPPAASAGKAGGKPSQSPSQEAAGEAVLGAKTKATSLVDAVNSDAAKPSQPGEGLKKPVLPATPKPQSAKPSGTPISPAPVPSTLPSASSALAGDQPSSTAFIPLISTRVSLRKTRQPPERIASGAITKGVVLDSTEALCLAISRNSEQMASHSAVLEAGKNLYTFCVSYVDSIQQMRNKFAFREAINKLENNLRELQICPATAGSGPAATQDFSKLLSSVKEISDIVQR", "test": "CEREP Kinase Selectivity Panel", "type": "biochemical", "settings": "10 μM lamellarin N"}, "[3]": {"molecular_target": "Lyn kinase (h) (Homo sapiens, UniProt P07948)", "test": "CEREP Kinase Selectivity Panel", "type": "biochemical", "settings": "10 μM lamellarin N"}, "[4]": {"molecular_target": "PDK1 (h) (Homo sapiens, UniProt O15530)", "test": "CEREP Kinase Selectivity Panel", "type": "biochemical", "settings": "10 μM lamellarin N"}, "[5]": {"molecular_target": "DYRK1A (Rattus norvegicus, UniProt Q63470)", "test": "DYRK1A kinase assay (myelin basic protein)", "experimental": "Blank values were subtracted and activities calculated as pmoles of phosphate incorporated during a 30 min. incubation. The activities were expressed in % of the maximal activity, i.e. in the absence of inhibitors. Controls were performed with appropriate dilutions of dimethylsulfoxide. Unless otherwise stated, the P81 phosphocellulose assay was used.\nDYRK1A was expressed as a GST fusion protein in E. coli (vector kindly provided by Dr. W. Becker, Institute for Pharmacology and Toxicology, Aachen, Germany) and affinity purified on glutathione-agarose. […] ATP in a final volume of 30 μl. After 30 min incubation at 30°C, 25 μl aliquots of supernatant were treated as described above."}, "[6]": {"molecular_target": "p38δ kinase (h) (Homo sapiens, UniProt O15264)", "test": "CEREP Kinase Selectivity Panel", "type": "biochemical", "settings": "10 μM lamellarin N"}, "[7]": {"system": "PARP, p53, p21^CIP1, Mcl-1 in SH-SY5Y cells", "type": "cell-based, human", "experimental": "SH-SY5Y cells treated at time 0 with 1 μM lamellarin N. Cells were harvested at different time-points and protein extracted for SDS-PAGE followed by Western blot analysis using antibodies directed against PARP, p53, p21^CIP1, or Mcl-1, as described in the materials and methods section. β-actin was used as loading control. “Ctrl” denoted untreated sample after 10 hours.\nAt given time points and lamellarin doses, SH-SY5Y cells were harvested in phosphate buffered saline (PBS) with commercially available protease inhibitors (Roche, 11836145001). Cells were homogenized by sonication in homogenization buffer supplemented with 0.1% NP-40 and protease inhibitors. The homogenization buffer consist of: 25mM MOPS, 15mM EGTA, 15mM MgCl2, 1mM sodium orthovanadate, 1mM sodium fluoride, 60mM β-glycerophosphate, 2mM DTT, 15mM p-nitrophenylphosphate, and 1mM phenyl phosphate-di-sodium salt (all reagents supplied by Sigma). Sonication retrieved proteins. Cellular proteins were subjected to electrophoresis in SDS 10% polyacrylamide gels and transferred to a PVDF membrane (Invitrogen). Membranes were incubated with primary antibodies directed against p53 (Santa Cruz Biotech, sc-263) (1:1000), p21^CIP1 (Calbiochem, OP64) (1:1000) or poly (ADP-ribose) polymerase (PARP) (Santa Cruz Biotech, sc-7150) (1:500). Appropriate secondary antibodies conjugated to horseradish peroxidase (Biorad) were added to visualize the proteins using the ECL detection system."}, "[8]": {"molecular_target": "CaMK4 (h) (Homo sapiens, UniProt Q16566)", "sequence (Q16566 whole entry)": "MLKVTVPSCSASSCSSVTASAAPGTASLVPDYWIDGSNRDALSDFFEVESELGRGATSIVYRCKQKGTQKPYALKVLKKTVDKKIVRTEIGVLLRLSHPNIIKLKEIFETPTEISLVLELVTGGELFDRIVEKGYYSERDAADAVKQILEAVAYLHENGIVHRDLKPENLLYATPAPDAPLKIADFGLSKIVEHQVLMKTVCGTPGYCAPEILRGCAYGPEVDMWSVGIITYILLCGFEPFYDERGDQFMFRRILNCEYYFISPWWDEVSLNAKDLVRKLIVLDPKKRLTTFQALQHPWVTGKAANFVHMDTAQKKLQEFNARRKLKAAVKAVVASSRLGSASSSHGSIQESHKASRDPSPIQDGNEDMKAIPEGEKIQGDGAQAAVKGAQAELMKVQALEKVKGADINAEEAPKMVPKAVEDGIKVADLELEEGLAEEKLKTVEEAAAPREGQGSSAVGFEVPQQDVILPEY", "test": "CEREP Kinase Selectivity Panel", "type": "biochemical", "settings": "10 μM lamellarin N"}, "[9]": {"molecular_target": "CDK1/cyclin B", "test": "CDK1/cyclin B kinase assay (histone H1, P81 phosphocellulose)", "type": "biochemical, starfish (Marthasterias glacialis)", "settings": "15 μM ATP; cell '− (x)' = no inhibitory activity detected, x = highest concentration tested", "description": "ATP (3,000 Ci/mmol; 1 mCi/ml) in a final volume of 30 μl. […] The wet filters were counted in the presence of 1 ml ACS (Amersham) scintillation fluid."}, "[10]": {"molecular_target": "Src kinase (h) (Homo sapiens, UniProt P12931)", "test": "CEREP Kinase Selectivity Panel", "type": "biochemical", "settings": "10 μM lamellarin N"}, "[11]": {"system": "CDK1/cyclin B, CDK5/p25, GSK-3α/ß, PIM-1, DYRK1A, CK1", "test": "Kinase assay panel, structure/activity comparison", "type": "biochemical", "settings": "transposition of substitutions at R3 and R4 of lamellarin D", "experimental": "All compounds were run on our kinase assay panel comprising CDK1/cyclin B, CDK5/p25, GSK-3α/ß, PIM-1, DYRK1A, CK1.\nKinase activities were assayed in buffer A (10 mM MgCl2, 1 mM EGTA, 1 mM DTT, 25 mM Tris-HCl pH 7.5, 50 μg heparin/ml) or C (60 mM β-glycerophosphate, 15 mM p-nitrophenyl phosphate, 25 mM MOPS (pH 7.2), 5 mM EGTA, 15 mM MgCl2, 1 mM dithiothreitol, 1 mM sodium vanadate, 1 mM phenylphosphate, 0.1 % Nonidet P-40), at 30°C, at a final ATP concentration of 15 μM. Blank values were subtracted and activities calculated as pmoles of phosphate incorporated during a 30 min. incubation. The activities were expressed in % of the maximal activity, i.e. in the absence of inhibitors. Controls were performed with appropriate dilutions of dimethylsulfoxide. Unless otherwise stated, the P81 phosphocellulose assay was used."}, "[12]": {"molecular_target": "PDGFRβ kinase (h) (Homo sapiens, UniProt P09619)", "sequence (P09619 33-1106)": "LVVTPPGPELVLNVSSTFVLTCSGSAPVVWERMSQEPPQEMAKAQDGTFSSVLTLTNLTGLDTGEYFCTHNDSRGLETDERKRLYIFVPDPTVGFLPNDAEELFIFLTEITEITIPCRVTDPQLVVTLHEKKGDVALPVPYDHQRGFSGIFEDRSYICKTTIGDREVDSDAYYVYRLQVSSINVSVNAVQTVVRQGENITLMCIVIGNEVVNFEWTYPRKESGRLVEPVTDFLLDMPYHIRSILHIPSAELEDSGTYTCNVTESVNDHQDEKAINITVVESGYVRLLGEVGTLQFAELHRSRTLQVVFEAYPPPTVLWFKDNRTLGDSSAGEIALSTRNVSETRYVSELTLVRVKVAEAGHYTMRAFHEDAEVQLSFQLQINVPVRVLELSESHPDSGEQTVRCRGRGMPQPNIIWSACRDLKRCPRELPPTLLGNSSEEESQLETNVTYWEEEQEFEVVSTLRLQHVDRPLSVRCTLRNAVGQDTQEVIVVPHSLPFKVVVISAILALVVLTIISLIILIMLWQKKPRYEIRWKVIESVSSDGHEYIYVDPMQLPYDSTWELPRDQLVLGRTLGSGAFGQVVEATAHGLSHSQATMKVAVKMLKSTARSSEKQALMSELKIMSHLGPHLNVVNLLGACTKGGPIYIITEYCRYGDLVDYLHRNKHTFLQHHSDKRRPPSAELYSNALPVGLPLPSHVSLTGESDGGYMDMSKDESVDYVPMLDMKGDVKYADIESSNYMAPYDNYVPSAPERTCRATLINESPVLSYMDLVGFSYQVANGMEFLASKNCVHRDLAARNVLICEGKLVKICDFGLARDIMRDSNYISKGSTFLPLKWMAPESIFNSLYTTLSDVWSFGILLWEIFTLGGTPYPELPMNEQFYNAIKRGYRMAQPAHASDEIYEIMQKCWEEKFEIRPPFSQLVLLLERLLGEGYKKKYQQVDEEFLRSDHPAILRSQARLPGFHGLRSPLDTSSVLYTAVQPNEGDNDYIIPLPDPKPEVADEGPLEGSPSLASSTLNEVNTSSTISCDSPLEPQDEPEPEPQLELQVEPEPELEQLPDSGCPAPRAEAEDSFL", "test": "CEREP Kinase Selectivity Panel", "type": "biochemical", "settings": "10 μM lamellarin N"}, "[13]": {"molecular_target": "PKCα (h) (Homo sapiens, UniProt P17252)", "test": "CEREP Kinase Selectivity Panel", "type": "biochemical", "settings": "10 μM lamellarin N"}, "[14]": {"system": "SH-SY5Y cells", "test": "Kinetics and dose-response of cell death (MTS reduction, LDH release, DEVDase caspase activity)", "type": "cell-based, human", "settings": "dose-response, doses as low as", "description": "SH-SY5Y cells were next incubated with a range of lamellarin N concentrations or at 1 μM over 48 hrs. Cell survival was monitored by the MTS reduction assay, cell death was assessed by the LDH release assay and caspase activation was measured using DEVD as a substrate (Figure 1).\nFigure 1. Dose- and time- dependent induction of cell death by lamellarin N. (A) Neuroblastoma SH-SY5Y cells were treated with lamellarin N at various concentrations. Cell death was measured by LDH release, cell survival was assessed by the MTS reduction assay, and caspase 3 activity was monitored as DEVDase activity. MTS and LDH assay were carried out 48 hours after treatment with lamellarin N. The caspase assay was carried out 24 hours after treatment. (B) Kinetics of cell survival, cell death and caspases activation following exposure of SH-SY5Y cells to 1 μM lamellarin N. Average of 3 independent experiments performed in triplicate. The standard deviation (±SD) is indicated by error bars.\nSH-SY5Y human neuroblastoma cells were grown in DMEM supplemented with 2mM L-glutamine (Invitrogen, Cergy Pontoise, France), plus antibiotics (penicillin-streptomycin) and a 10% volume of fetal calf serum (FCS) (Invitrogen). Cell viability was determined by means of the MTS (3- (4,5-dimethylthiazol-2-yl)-5- (3-carboxymethoxyphenyl)-2- (4-sulfophenyl)-2H -tetrazolium) reduction method as previously described. […]"}, "[15]": {"molecular_target": "BMX kinase (h) (Etk) (Homo sapiens, UniProt P51813)", "test": "CEREP Kinase Selectivity Panel", "type": "biochemical", "settings": "10 μM lamellarin N"}, "[16]": {"molecular_target": "IRK (h) (InsR) (Homo sapiens, UniProt P06213)", "test": "CEREP Kinase Selectivity Panel", "type": "biochemical", "settings": "10 μM lamellarin N"}, "[17]": {"molecular_target": "MAPKAPK2 (h) (Homo sapiens, UniProt P49137)", "sequence (P49137 whole entry)": "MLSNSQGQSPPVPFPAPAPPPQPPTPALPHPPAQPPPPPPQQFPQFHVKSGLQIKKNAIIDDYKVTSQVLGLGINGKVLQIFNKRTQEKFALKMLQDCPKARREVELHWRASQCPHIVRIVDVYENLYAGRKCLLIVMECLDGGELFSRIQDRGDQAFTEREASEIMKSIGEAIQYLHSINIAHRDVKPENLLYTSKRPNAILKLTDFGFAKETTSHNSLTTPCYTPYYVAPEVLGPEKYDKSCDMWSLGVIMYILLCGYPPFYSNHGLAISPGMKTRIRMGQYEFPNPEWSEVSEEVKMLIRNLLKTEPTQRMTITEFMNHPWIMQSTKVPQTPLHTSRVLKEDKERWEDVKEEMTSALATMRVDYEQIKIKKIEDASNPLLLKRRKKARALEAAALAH", "test": "CEREP Kinase Selectivity Panel", "type": "biochemical", "settings": "10 μM lamellarin N"}, "[18]": {"molecular_target": "Lck kinase (h) (Homo sapiens, UniProt P06239)", "sequence (P06239 whole entry)": "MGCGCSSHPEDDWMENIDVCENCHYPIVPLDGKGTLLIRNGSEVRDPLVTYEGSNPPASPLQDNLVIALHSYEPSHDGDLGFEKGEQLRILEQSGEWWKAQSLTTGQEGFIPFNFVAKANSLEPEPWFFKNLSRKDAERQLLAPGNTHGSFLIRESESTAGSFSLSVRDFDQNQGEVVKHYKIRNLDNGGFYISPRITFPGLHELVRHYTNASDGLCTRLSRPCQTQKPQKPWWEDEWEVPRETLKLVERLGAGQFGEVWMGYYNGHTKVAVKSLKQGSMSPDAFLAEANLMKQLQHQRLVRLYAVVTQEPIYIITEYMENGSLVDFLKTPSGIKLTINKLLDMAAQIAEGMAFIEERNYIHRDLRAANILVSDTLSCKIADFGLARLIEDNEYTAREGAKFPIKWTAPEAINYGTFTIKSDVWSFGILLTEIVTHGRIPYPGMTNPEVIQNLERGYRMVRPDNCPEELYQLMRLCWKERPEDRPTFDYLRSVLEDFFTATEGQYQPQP", "test": "CEREP Kinase Selectivity Panel", "type": "biochemical", "settings": "10 μM lamellarin N"}, "[19]": {"molecular_target": "Akt1/PKB α (h) (Homo sapiens, UniProt P31749)", "sequence (P31749 whole entry)": "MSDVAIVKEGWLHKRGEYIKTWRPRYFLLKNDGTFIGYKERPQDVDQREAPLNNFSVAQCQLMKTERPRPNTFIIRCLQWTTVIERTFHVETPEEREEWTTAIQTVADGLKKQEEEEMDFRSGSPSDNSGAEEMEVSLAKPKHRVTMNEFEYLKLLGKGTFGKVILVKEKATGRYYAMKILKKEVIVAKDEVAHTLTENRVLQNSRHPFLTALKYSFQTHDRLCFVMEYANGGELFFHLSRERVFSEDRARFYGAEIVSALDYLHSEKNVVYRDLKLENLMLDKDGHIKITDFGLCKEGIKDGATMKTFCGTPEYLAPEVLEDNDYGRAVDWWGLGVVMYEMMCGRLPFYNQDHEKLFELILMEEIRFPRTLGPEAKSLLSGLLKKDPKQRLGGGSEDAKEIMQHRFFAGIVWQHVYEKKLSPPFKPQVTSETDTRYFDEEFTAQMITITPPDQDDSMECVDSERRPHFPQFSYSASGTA", "test": "CEREP Kinase Selectivity Panel", "type": "biochemical", "settings": "10 μM lamellarin N"}, "[20]": {"molecular_target": "CK1", "test": "CK1 kinase assay (CKS peptide)", "type": "biochemical, porcine", "settings": "15 μM ATP; cell '− (x)' = no inhibitory activity detected, x = highest concentration tested", "description": "CK1 was purified from porcine brain by affinity chromatography on immobilized axin fragment. The mixture of native CK1 isoforms (essentially CK1δ and CK1ɛ) was assayed in three-fold diluted buffer C, using 25 μM CKS peptide, a CK1 selective substrate (RRKHAAIGpSAYSITA, synthesized by Millegen (Labège, France). Assays were performed for 30 min. at 30°C, as described for GSK-3."}}, "note": "pIC50: −log10 of the molar value.", "data": [{"smiles": "COc1ccc(-c2c3c4cc(OC)c(O)cc4oc(=O)c3n3ccc4cc(O)c(OC)cc4c23)cc1O", "note": "[Compound 6, lamellarin N]", "values": [{"measurement": "Activity (% of control)", "setting": "[1]", "result": "4.0 % of control"}, {"measurement": "Activity (% of control)", "setting": "[2]", "result": "61.4 % of control"}, {"measurement": "Activity (% of control)", "setting": "[3]", "result": "7.2 % of control"}, {"measurement": "Activity (% of control)", "setting": "[4]", "result": "89.8 % of control"}, {"measurement": "pIC50", "setting": "[5]", "result": 7.46}, {"measurement": "Activity (% of control)", "setting": "[6]", "result": "96.0 % of control"}, {"measurement": "effect on survival factor Mcl-1 expression", "setting": "[7]", "result": "not down-regulated"}, {"measurement": "lowest concentration inducing PARP cleavage and p53 and p21 expression", "setting": "[7]", "result": 0.1, "unit": "µM"}, {"measurement": "time at which induction of PARP cleavage and p53 and p21 expression already takes place", "setting": "[7]", "result": "≤ 6", "unit": "h"}, {"measurement": "Activity (% of control)", "setting": "[8]", "result": "89.9 % of control"}, {"measurement": "pIC50", "setting": "[9]", "result": 7.15}, {"measurement": "Activity (% of control)", "setting": "[10]", "result": "56.2 % of control"}, {"measurement": "enhancement of kinase inhibitory activity relative to lamellarin D", "setting": "[11]", "result": 10, "unit": "fold"}, {"measurement": "Activity (% of control)", "setting": "[12]", "result": "1.8 % of control"}, {"measurement": "Activity (% of control)", "setting": "[13]", "result": "91.7 % of control"}, {"measurement": "lowest dose at which cells start dying", "setting": "[14]", "result": 0.05, "unit": "µM"}, {"measurement": "Activity (% of control)", "setting": "[15]", "result": "60.8 % of control"}, {"measurement": "Activity (% of control)", "setting": "[16]", "result": "46.7 % of control"}, {"measurement": "Activity (% of control)", "setting": "[17]", "result": "96.6 % of control"}, {"measurement": "Activity (% of control)", "setting": "[18]", "result": "7.1 % of control"}, {"measurement": "Activity (% of control)", "setting": "[19]", "result": "104.6 % of control"}, {"measurement": "pIC50", "setting": "[20]", "result": "< 5.00"}]}]}
